Values joined by “and” are separate entries in the source; they are usually repeats but may differ in a detail not shown here. Equal values may be shown once. Read-outs that look alike come from different tables or passages of the source.
Columns and labels:
Set-up in all cases: host or cells: CHO cells, stably transfected
M2 muscarinic receptor = biological target: T1, M2 muscarinic receptor (Homo sapiens, UniProt P08172); test: [3H]NMS competition binding, M2 CHO membranes
T1 sequence (P08172 1-466): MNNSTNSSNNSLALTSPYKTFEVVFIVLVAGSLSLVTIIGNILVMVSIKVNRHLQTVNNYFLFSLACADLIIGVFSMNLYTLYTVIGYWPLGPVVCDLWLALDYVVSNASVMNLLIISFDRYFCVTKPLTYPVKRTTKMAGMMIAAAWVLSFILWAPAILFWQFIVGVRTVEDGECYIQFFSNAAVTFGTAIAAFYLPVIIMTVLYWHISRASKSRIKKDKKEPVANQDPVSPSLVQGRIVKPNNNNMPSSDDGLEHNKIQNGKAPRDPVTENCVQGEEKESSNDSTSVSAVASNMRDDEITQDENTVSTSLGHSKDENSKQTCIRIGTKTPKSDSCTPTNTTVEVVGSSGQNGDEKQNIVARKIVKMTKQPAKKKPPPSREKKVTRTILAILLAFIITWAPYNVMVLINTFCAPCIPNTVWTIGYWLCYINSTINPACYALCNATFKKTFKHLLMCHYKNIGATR

M1 muscarinic receptor = biological target: T2, M1 muscarinic receptor (Homo sapiens, UniProt P11229); test: [3H]NMS competition binding, M1 CHO membranes
T2 sequence (P11229 1-460): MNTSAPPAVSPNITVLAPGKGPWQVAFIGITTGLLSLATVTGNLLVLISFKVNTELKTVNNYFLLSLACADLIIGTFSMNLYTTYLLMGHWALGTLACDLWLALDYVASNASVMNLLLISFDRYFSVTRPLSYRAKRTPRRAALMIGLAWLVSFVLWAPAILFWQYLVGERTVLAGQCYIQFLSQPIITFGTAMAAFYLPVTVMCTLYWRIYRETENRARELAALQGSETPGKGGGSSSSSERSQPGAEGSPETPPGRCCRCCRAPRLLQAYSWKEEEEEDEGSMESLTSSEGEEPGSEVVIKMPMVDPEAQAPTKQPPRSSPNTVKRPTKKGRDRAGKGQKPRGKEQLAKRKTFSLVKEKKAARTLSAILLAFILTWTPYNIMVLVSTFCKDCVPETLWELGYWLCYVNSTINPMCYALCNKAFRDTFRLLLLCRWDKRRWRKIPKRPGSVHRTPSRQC

M5 muscarinic receptor = biological target: T3, M5 muscarinic receptor (Homo sapiens, UniProt P08912); test: [3H]NMS competition binding, M5 CHO membranes
T3 sequence (P08912 1-532): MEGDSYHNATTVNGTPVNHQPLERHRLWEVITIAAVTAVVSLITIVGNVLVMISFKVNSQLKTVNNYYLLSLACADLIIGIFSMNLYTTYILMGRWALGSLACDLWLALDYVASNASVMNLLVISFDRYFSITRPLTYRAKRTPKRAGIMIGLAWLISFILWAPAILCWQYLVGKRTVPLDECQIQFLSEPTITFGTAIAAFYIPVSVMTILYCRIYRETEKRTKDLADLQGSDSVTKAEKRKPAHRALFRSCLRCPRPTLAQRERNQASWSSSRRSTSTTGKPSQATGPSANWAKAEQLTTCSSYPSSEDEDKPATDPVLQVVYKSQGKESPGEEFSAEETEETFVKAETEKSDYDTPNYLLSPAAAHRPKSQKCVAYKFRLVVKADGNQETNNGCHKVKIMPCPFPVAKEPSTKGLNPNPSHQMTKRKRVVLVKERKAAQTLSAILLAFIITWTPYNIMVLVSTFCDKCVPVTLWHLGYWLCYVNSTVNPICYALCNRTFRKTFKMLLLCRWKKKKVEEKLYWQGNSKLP

M3 muscarinic receptor = M3 muscarinic receptor (Homo sapiens, UniProt P20309); test: accumulation of IPX, M3 CHO cells (M3Gq); assay type: cell-based
[1] = competition with 1 nM [3H]NMS, read-out: Inhibition constants (Ki) as negative logarithms, M2 (converted)
[2] = high-affinity fraction of binding to M2, read-out: high affinity binding
[3] = competition with 1 nM [3H]NMS, read-out: Inhibition constants (Ki) as negative logarithms, M1 (converted)
[4] = competition with 1 nM [3H]NMS, read-out: Inhibition constants (Ki) as negative logarithms, M5 (converted)
[5] = M3 (↑IPX), preferential response, Table 7
[6] = M3 (↑IPX), preferential response, Table 7, operational efficacy
[7] = M3 (↑IPX), preferential response, Table 7, operational model, read-out: pKA (converted)
[8] = M3 (↑IPX), preferential response, Table 7, read-out: pEC50 (converted)
[9] = M3 (↑IPX), preferential response, relative to carbachol, Tables 2, 3, 7
[10] = M3 (↑IPX), preferential response, to carbachol, Tables 2, 3, 7
[11] = M3Gq (↑IPX), Table 8, relative to carbachol
[12] = M3Gq (↑IPX), Table 8, to carbachol
[13] = M3Gq (↑IPX), Table 8, read-out: pEC50 (converted)
[14] = M3Gq (↑IPX), Table 8, read-out: pKA (converted)

Sequence of M3 muscarinic receptor (P20309 whole entry): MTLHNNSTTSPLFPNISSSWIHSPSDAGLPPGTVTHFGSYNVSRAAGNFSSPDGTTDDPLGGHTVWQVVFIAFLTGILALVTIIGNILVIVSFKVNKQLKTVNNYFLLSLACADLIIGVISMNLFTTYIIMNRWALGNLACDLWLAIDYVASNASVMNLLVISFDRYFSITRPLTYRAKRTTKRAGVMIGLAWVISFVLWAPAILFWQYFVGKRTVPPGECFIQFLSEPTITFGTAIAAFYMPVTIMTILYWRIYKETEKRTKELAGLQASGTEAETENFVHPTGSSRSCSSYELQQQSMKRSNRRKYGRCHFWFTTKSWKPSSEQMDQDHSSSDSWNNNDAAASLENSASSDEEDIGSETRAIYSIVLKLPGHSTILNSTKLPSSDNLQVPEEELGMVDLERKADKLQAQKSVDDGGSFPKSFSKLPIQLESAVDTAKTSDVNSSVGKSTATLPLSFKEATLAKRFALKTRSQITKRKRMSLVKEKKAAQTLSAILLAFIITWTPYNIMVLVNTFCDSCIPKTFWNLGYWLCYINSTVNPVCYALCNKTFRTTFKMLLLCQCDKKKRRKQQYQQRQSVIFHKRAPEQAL

Compound	Ki (M2 muscarinic receptor; [1])	Ki (M1 muscarinic receptor; [3])	Ki (M5 muscarinic receptor; [4])	E′MAX (M3 muscarinic receptor; [5])	τ (M3 muscarinic receptor; [6])	Kd (M3 muscarinic receptor; [7])	EC50 (M3 muscarinic receptor; [8])	RAi (M3 muscarinic receptor; [9])	Δlog(τ/KA) (M3 muscarinic receptor; [10])	RAi (M3 muscarinic receptor)	Δlog(τ/KA) (M3 muscarinic receptor)	other results
Cc1ccc(C[N+]2(C)CC=CCC2)s1.[I-] (centres unmarked) [Compound 7B, 1-methyl-1-[(5-methylthiophen-2-yl)methyl]-1,2,3,6-tetrahydropyridin-1-ium iodide]	2.29 µM	3.98 µM	3.39 µM	4.4 ± 0.4 fold over basal	0.14 ± 0.01	5.01 µM	8.32 µM	0.0077 ± 0.0008	2.11 ± 0.12			Ki (M2 muscarinic receptor; [2]): ~0.03 µM
C1=CCN(Cc2cccs2)CC1.Cl [Compound 6A, 1-[(thiophen-2-yl)methyl]-1,2,3,6-tetrahydropyridin-1-ium chloride]	42.7 µM	44.7 µM	50.1 µM	2.5 ± 0.2 fold over basal	0.06 ± 0.01	5.01 µM	5.01 µM	0.0058 ± 0.0005	2.23 ± 0.23			E′MAX (M3 muscarinic receptor; M3Gq (↑IPX), Table 8): 2.4 ± 0.2 fold over basal; τ (M3 muscarinic receptor; M3Gq (↑IPX), Table 8): 0.05 ± 0.01; RAi (M3 muscarinic receptor; [11]): 0.0056 ± 0.0008; Δlog(τ/KA) (M3 muscarinic receptor; [12]): 2.26 ± 0.48; EC50 (M3 muscarinic receptor; [13]): 5.01 µM; Kd (M3 muscarinic receptor; [14]): 5.01 µM
C[N+]1(Cc2cccs2)CC=CCC1.[I-] (centres unmarked) [Compound 7A, 1-methyl-1-[(thiophen-2-yl)methyl]-1,2,3,6-tetrahydropyridin-1-ium iodide]	7.94 µM	11.2 µM	10 µM	3.0 ± 0.3 fold over basal	0.08 ± 0.01	3.16 µM	3.16 µM	0.011 ± 0.001	1.94 ± 0.20			E′MAX (M3 muscarinic receptor; M3Gq (↑IPX), Table 8): 2.6 ± 0.3 fold over basal; τ (M3 muscarinic receptor; M3Gq (↑IPX), Table 8): 0.06 ± 0.01; RAi (M3 muscarinic receptor; [11]): 0.0084 ± 0.0011; Δlog(τ/KA) (M3 muscarinic receptor; [12]): 2.08 ± 0.34; EC50 (M3 muscarinic receptor; [13]): 3.98 µM; Kd (M3 muscarinic receptor; [14]): 3.98 µM
O=C1CCCN1CC#CCN1CCCC1 [oxotremorine, reference compound]										4.14 ± 0.38 and 4.14 ± 0.41	−0.62 ± 0.06	Ki (M2 muscarinic receptor; Inhibition constants (KI) as negative logarithms, M2, high site, reference agonists, high affinity site): 0.0126 µM; Ki (M2 muscarinic receptor; Inhibition constants (KI) as negative logarithms, M2, low site, reference agonists, low affinity site): 0.575 µM; Ki (M1 muscarinic receptor; Inhibition constants (KI) as negative logarithms, M1, high site): 0.00794 µM; Ki (M1 muscarinic receptor; Inhibition constants (KI) as negative logarithms, M1, low site): 0.372 µM; Ki (M5 muscarinic receptor; Inhibition constants (KI) as negative logarithms, M5, high site, reference agonists, high affinity site): 0.0126 µM; Ki (M5 muscarinic receptor; Inhibition constants (KI) as negative logarithms, M5, low site, reference agonists, low affinity site): 0.537 µM; EC50 (M3 muscarinic receptor): 0.0955 µM; E′MAX (M3 muscarinic receptor): 22 ± 2 fold over basal; Kd (M3 muscarinic receptor): 0.398 µM; pEC50 (M3 muscarinic receptor): 7.02 ± 0.04; pKA (M3 muscarinic receptor): 6.4 ± 0.1; τ (M3 muscarinic receptor): 2.97 ± 0.30 and 3.0 ± 0.3
C[N+]1(Cc2ccc(Br)s2)CC=CCC1.[I-] (centres unmarked) [Compound 7C, 1-[(5-bromothiophen-2-yl)methyl]-1-methyl-1,2,3,6-tetrahydropyridin-1-ium iodide]	0.933 µM	1.51 µM	0.977 µM	1.6 ± 0.1 fold over basal	0.02 ± 0.01	2.51 µM	2.51 µM			0.0042 ± 0.0005	2.38 ± 0.66	
Brc1ccc(CN2CC=CCC2)s1.Cl [Compound 6C, 1-[(5-bromothiophen-2-yl)methyl]-1,2,3,6-tetrahydropyridin-1-ium chloride]	10 µM	7.59 µM	12.9 µM	1.8 ± 0.1 fold over basal	0.03 ± 0.01	3.98 µM	5.01 µM	0.0029 ± 0.0004	2.53 ± 0.33			
C[N+]1(Cc2ccc(Cl)s2)CC=CCC1.[I-] (centres unmarked) [Compound 7D, 1-[(5-chlorothiophen-2-yl)methyl]-1-methyl-1,2,3,6-tetrahydropyridin-1-ium iodide]		1.38 µM		1.8 ± 0.1 fold over basal	0.03 ± 0.01	3.98 µM	3.16 µM			0.0050 ± 0.0006	2.30 ± 0.45	Ki (M2 muscarinic receptor; Inhibition constants (Ki) as negative logarithms, M2, competition with 1 nM [3H]NMS): 0.692 µM; Ki (M2 muscarinic receptor; Inhibition constants Ki, at M2 receptors): 0.7 µM; Ki (M5 muscarinic receptor; Inhibition constants (Ki) as negative logarithms, M5, competition with 1 nM [3H]NMS): 1.7 µM
Cc1ccc(CN2CC=CCC2)s1.Cl [Compound 6B, 1-[(5-methylthiophen-2-yl)methyl]-1,2,3,6-tetrahydropyridin-1-ium chloride]	10.2 µM	25.1 µM	24 µM	2.0 ± 0.2 fold over basal	0.04 ± 0.01	15.8 µM	31.6 µM	0.0006 ± 0.0001	3.24 ± 0.34			Ki (M2 muscarinic receptor; [2]): ~0.03 µM

Reference: patent publication US11591323B2, “Muscarinic agonists as non-steroidal and non-opioid analgesics and methods of use thereof” (Barry University, priority 2019, dated 2023)
